Experimental data reported in US20240318225A1, “TECHNIQUES FOR ISOLATION OR ANALYSIS OF BACTERIAL PATHOGENS FROM PATIENT SAMPLES” (General Electric Company, priority 2021, published 2024).

Tested on: E. coli clinical isolate
Test: microfluidic single cell antimicrobial susceptibility testing
Format: cell-based
Details: 8 μg/ml ampicillin; during the duration of the experiment
Protocol: The microfluidic device for single cell antimicrobial susceptibility testing was fabricated by soft lithography. The microchannel master mold was fabricated by photolithography patterning and reactive-ion etching of a silicon wafer. Microchannel layers were then fabricated by PDMS molding on the master mold. PDMS pre-polymer and cross-linker were mixed at 10:1 ratio. The mixture was poured on the master mold and incubated for at least 3 hours at 65° C. The single cell antimicrobial susceptibility testing device was fabricated by bonding the PDMS layer with a glass slide. Inlet and outlet reservoirs were created by punching the PDMS layer with a biopsy puncher.
To perform the microfluidic single cell antimicrobial susceptibility testing experiment, ampicillin was added to the enriched samples with concentrations of 0 μg/mL, 2 μg/mL, 4 μg/mL, and 8 μg/mL. Each respective solution was loaded into a microfluidic device by capillary force. The devices were then mounted onto an epi-fluorescence microscope (Leica DMI 4000B, objective 20× or 40×) with a microscope heating stage. The presence of bacteria was examined, and the bacterial growth was monitored continuously.
The disclosed workflows may be used for antimicrobial susceptibility testing using a microfluidic device. […]

With CC1(C)S[C@@H]2[C@H](NC(=O)[C@H](N)c3ccccc3)C(=O)N2[C@H]1C(=O)O [ampicillin] the “effect on bacteria at higher concentration” value was “some bacteria were lysed”.
